Data set [1] in a line: Metabolic stability in human serum at 37°C, LC/MS. The format is in vitro ADME. On the procedure:
The compounds were incubated with a human serum at 37°C, and the amount of the residual test substance at various points in time was quantified by LC/MS with respect to an internal standard substance. […] Next, it was examined whether or not the half-lives of the compounds were affected by the reactivity of the Dha residue. The Dha residue may be conjugated with various serum thiols.
In addition, the metabolic stability of all of the 14 types of candidate thiopeptides was examined. The compound was incubated with the human serum at 37°C, and the amount of the residual thiopeptide at various points in time was quantified by LC/MS with respect to the internal standard substance. The half-life of the thiopeptide for TLR10 was generally as long as 38.2 hours, and the thiopeptide was stable.

For a further data set, the target named is T1, IRAK4 (Homo sapiens, UniProt Q9NWZ3).
T1 sequence (Q9NWZ3 1-460): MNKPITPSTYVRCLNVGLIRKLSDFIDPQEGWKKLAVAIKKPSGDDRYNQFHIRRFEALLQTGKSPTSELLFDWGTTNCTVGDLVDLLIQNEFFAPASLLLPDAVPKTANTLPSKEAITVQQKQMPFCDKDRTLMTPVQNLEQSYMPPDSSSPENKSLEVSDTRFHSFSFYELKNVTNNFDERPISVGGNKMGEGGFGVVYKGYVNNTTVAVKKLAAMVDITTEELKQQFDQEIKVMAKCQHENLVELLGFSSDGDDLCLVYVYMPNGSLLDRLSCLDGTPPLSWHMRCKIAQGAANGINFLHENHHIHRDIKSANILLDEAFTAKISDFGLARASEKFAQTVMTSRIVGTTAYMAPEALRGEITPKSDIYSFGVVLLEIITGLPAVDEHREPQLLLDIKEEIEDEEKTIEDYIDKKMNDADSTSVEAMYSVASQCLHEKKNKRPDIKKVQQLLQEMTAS
Put plainly: Surface plasmon resonance (SPR) binding affinity to IRAK4. On the procedure: Next, the binding affinity of each of the synthesized thiopeptides (14 types excluding IR1-ct and IR15-ct in Figure 8) to the target IRAK4 and TLR10 was examined using surface plasmon resonance (SPR). […] Next, using an ADP-Glo-based kinase inhibition assay, the IC50 values of 4 types of thiopeptides for IRAK4 excluding IR1-ct and IR15-ct were evaluated.
In general terms: In SPR one partner is held on a chip, and binding of the other changes the refractive index at the surface.

In a further data set the target is TNIK (Homo sapiens, UniProt Q9UKE5). The data set is described as follows: Surface plasmon resonance (SPR) binding affinity to TNIK. The following applies: ATP 1 mM, 15-fold higher than KM. From the text: Surface plasmon resonance (SPR) was used to evaluate the binding affinity of the thiopeptide synthesized in Example 2 to TNIK.
Data set [2] concerns NFkB reporter gene activity. The data set is described as follows: NFkB reporter gene assay in THP1-XBlue stable cell line. It counts as cell-based. The following applies: read-out: inhibition (IC50) of NFkB reporter gene activity.

*1 amine or outer side, *2 acyl side, *3 side chain or, on linkers, in order; H or OH if unused. Where a SMILES comes first, the peptide text is derived from it. Bridges are numbered along the chain shown (N, C = ends). [ ]: non-standard residue; d: D form. The star is where a group is joined. X2 = C=C(N[*:2])c1nc(-c2nc(-c3nc(C(=O)NCCC(=O)NCCOCCOCCCCCCCl)cs3)ccc2C(=O)[*:1])cs1; X1 = C=C(N[*:2])c1nc(-c2nc(-c3nc(C(=O)OC)cs3)ccc2C(=O)[*:1])cs1; Nle = CCCC[C@H](N)C(=O)O; Dhb = C/C=C(\N)C(=O)O; Cam = NC(=O)C*

Sequence of TNIK (Q9UKE5 whole entry): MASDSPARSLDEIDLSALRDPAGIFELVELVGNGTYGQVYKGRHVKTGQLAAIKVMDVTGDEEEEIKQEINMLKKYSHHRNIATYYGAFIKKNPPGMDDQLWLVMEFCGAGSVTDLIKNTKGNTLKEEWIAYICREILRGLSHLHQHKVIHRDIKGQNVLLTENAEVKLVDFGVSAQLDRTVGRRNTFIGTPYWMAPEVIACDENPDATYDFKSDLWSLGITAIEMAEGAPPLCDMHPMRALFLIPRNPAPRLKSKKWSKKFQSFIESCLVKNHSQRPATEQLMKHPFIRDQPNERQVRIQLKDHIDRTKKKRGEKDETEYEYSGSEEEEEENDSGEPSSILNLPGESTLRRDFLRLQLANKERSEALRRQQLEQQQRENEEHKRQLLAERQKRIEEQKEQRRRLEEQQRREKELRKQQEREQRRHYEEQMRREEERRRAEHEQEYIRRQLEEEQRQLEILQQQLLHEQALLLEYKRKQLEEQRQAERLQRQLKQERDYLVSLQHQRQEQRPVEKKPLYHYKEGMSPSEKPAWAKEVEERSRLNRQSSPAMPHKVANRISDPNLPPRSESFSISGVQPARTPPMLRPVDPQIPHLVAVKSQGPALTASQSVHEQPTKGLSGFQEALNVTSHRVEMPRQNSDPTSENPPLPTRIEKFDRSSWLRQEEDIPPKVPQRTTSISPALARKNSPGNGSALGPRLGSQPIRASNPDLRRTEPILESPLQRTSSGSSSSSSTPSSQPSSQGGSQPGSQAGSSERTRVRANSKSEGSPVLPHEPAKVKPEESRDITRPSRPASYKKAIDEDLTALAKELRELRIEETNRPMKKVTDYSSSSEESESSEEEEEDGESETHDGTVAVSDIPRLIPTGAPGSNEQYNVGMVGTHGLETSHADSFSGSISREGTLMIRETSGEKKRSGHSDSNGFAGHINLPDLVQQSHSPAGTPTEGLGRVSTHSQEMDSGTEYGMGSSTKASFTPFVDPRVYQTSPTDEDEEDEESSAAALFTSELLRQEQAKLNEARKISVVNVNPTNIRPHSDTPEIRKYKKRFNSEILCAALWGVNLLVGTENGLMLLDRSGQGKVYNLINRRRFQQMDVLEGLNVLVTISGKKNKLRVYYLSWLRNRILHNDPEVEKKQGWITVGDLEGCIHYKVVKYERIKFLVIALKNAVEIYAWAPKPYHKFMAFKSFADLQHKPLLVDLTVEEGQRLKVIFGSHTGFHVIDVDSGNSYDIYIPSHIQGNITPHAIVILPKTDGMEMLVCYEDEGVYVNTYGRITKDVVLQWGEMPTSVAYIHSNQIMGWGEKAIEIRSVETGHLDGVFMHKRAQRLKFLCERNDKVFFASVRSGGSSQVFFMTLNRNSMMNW

With `C=C1NC(=O)[C@H](CO)NC(=O)[C@H](CSCC(N)=O)NC(=O)CNC(=O)[C@H](Cc2ccc(O)cc2)NC(=O)[C@H](C)NC(=O)[C@H](CO)NC(=O)[C@H](CC(=O)O)NC(=O)CNC(=O)[C@H](CC(C)C)NC(=O)[C@H](Cc2c[nH]c3ccccc23)NC(=O)[C@H](Cc2c[nH]c3ccccc23)NC(=O)c2ccc(-c3nc(C(=O)OC)cs3)nc2-c2csc1n2` [TP4] (WWLGDSAYGC(Cam)S; linker N-C via X1), the “half-life (τ1/2) in human serum” value in data set [1] worked out at 88 h.

`C=C1NC(=O)[C@H](CCCCN)NC(=O)[C@H](Cc2ccc(O)cc2)NC(=O)[C@H]([C@@H](C)CC)NC(=O)[C@H](CCCNC(=N)N)NC(=O)[C@H](CCCNC(=N)N)NC(=O)[C@H](CCCCN)NC(=O)[C@H](Cc2ccccc2)NC(=O)[C@H](CC(C)C)NC(=O)[C@H](CCSC)NC(=O)[C@H](CO)NC(=O)[C@H](Cc2c[nH]c3ccccc23)NC(=O)c2ccc(-c3nc(C(=O)OC)cs3)nc2-c2csc1n2` [IR1] (WSMLFKRRIYK; linker N-C via X1): the Kd at IRAK4 came out at 0.0013 µM.

As to `C=C1NC(=O)CNC(=O)[C@H](CC(N)=O)NC(=O)[C@H](CC(C)C)NC(=O)CNC(=O)[C@H](CCCCN)NC(=O)[C@H](C)NC(=O)[C@H]([C@@H](C)CC)NC(=O)[C@H](CO)NC(=O)[C@H](Cc2c[nH]c3ccccc23)NC(=O)[C@H](C)NC(=O)[C@H](Cc2c[nH]c3ccccc23)NC(=O)c2ccc(-c3nc(C(=O)OC)cs3)nc2-c2csc1n2` [TP8] (WAWSIAKGLNG; linker N-C via X1), on TNIK, the “binding to TNIK in the presence of the saturated concentration of ATP” value is reported as “bonded to TNIK”. The “half-life (τ1/2) in human serum” value in data set [1] came out at 14 h.

Regarding `C=C1NC(=O)/C(=C/C)NC(=O)[C@H](Cc2c[nH]c3ccccc23)NC(=O)[C@H](Cc2c[nH]cn2)NC(=O)[C@H](Cc2c[nH]c3ccccc23)NC(=O)[C@H]([C@@H](C)O)NC(=O)[C@H]([C@@H](C)CC)NC(=O)[C@H](Cc2ccccc2)NC(=O)[C@H](CCC(N)=O)NC(=O)[C@H](CCCNC(=N)N)NC(=O)[C@H](CCCCN)NC(=O)[C@H](CCCC)NC(=O)[C@H](CO)NC(=O)[C@H](Cc2c[nH]c3ccccc23)NC(=O)c2ccc(-c3nc(C(=O)NCCC(=O)NCCOCCOCCCCCCCl)cs3)nc2-c2csc1n2` [IR15-ct] (WS[Nle]KRQFITWHW[Dhb]; linker N-C via X2), the IC50 in data set [2] was 7 µM.

Consider `C=C1NC(=O)[C@H](CCCCN)NC(=O)[C@H](Cc2ccc(O)cc2)NC(=O)[C@H]([C@@H](C)CC)NC(=O)[C@H](CCCNC(=N)N)NC(=O)[C@H](CCCNC(=N)N)NC(=O)[C@H](CCCCN)NC(=O)[C@H](Cc2ccccc2)NC(=O)[C@H](CC(C)C)NC(=O)[C@H](CCSC)NC(=O)[C@H](CO)NC(=O)[C@H](Cc2c[nH]c3ccccc23)NC(=O)c2ccc(-c3nc(C(=O)NCCC(=O)NCCOCCOCCCCCCCl)cs3)nc2-c2csc1n2` [IR1-ct] (WSMLFKRRIYK; linker N-C via X2), for which the IC50 in data set [2] turned out to be 7.8 µM.

Broadly, the Kd is the constant that tells how readily two partners part at equilibrium. High values mean lower affinity, low ones higher affinity. Usually IC50 stands for the concentration at which inhibition is half-maximal.

The values above are taken from EP4596566A1, “COMPOUND PRODUCTION METHOD” (The University of Tokyo, priority 2022, dated 2024).
